From article PMC12196213, “New Insights into the Anticancer Effects and Toxicogenomic Safety of Two β-Lapachone Derivatives” (Pharmaceuticals, 2025)

What was measured:
[1] = tested on: HCT-116 (human colon carcinoma); assay: MTT cytotoxicity assay, HCT-116; type: cell-based; details: for IC50: Homo sapiens, HCT-116, 72 h, MTT; for selectivity index (SI): IC50 L929 / IC50 HCT-116, 72 h
Description: (§1) To assess the cytotoxicity of the compounds, the MTT [3-(4,5-dimethylthiazol-2-yl)-2,5-diphenyltetrazolium bromide] assay was employed. The cells (2 × 10^5/mL) were incubated with the substances at concentrations ranging from 0.78 to 25 µg/mL. β-lap was used as a positive control. After 24, 48, or 72 h of incubation, MTT was added at a concentration of 5 mg/mL. Cell viability in different treatments was compared to the negative control using the following formula: Cell viability%=mean absorbance of treated samples/mean absorbance of negative control×100 The IC50 (the concentration that inhibits 50% of cell growth compared to the negative control) was calculated using nonlinear regression in GraphPad Prism 8.0 for Windows (GraphPad Demo Software, San Diego, CA, USA). Experiments were performed in triplicate and in two independent experiments. The protocol is also described in other previous publications. The IC50 of normal and cancer cells was used to calculate the SI of compounds BV3 and BV5. The SI indicated the selectivity of the compounds among the normal cell line (L-929) and a cancer cell line (HCT-116, MDA-MB-231, HepG2, or HeLa). SI is a crucial parameter for therapeutic applications in upcoming clinical trials. Therefore, the following formula was used to calculate SI: SI=IC50(normal cell line)/IC50(cancer cell line)

[2] = tested on: HepG2 (human hepatocellular carcinoma); assay: MTT cytotoxicity assay, HepG2; type: cell-based; details: for IC50: Homo sapiens, HepG2, 72 h, MTT; for selectivity index (SI): IC50 L929 / IC50 HepG2, 72 h
Description: as §1

[3] = tested on: MDA-MB-231 (human breast adenocarcinoma); assay: MTT cytotoxicity assay, MDA-MB-231; type: cell-based; details: for IC50: Homo sapiens, MDA-MB-231, MDA-MD-231 (so in the source), 72 h, MTT; for selectivity index (SI): IC50 L929 / IC50 MDA-MD-231, 72 h
Description: as §1

[4] = tested on: cancer cells (HeLa, HCT-116, HepG2, MDA-MB-231); assay: MTT cytotoxicity assay, cancer cell panel (range over lines); type: cell-based; details: Homo sapiens, 72 h
Description: as §1, with “publications.” for “publications. The IC50 of normal and cancer cells was used to calculate the SI of compounds BV3 and BV5. The SI indicated the selectivity of the compounds among the normal cell line (L-929) and a cancer cell line (HCT-116, MDA-MB-231, HepG2, or HeLa). SI is a crucial parameter for therapeutic applications in upcoming clinical trials. Therefore, the following formula was used to calculate SI: SI=IC50(normal cell line)/IC50(cancer cell line)”

HeLa cells = assay: Annexin V-FITC / propidium iodide flow cytometry (apoptosis or necrosis); type: cell-based, human; details: 48 h; for cell viability compared to negative control: IC50 or 2 × IC50; for necrosis compared to negative control: BV3 at the IC50 concentration
Description: The analysis was performed using flow cytometry with the Annexin V Apoptosis Detection Kit (eBioscience™, USA) following the manufacturer’s instructions. Initially, HeLa cells were incubated at a concentration of 4 × 10^5 cells/mL and treated with the compounds at their IC50 or 2 × IC50 values obtained at 48 h. β-lap was used as a positive control, and the culture medium as the negative control. After 48 h of treatment, the cells were trypsinized and centrifuged at 1200× g for 5 min. Subsequently, the cells were washed with PBS and centrifuged again. The cells were then resuspended in buffer and incubated with 5 µL of Annexin V-FITC for 10 min. Afterward, the cells were washed with the buffer, centrifuged, resuspended in the buffer, and stained with 10 µL of propidium iodide. The cells were acquired using the Guava EasyCyteHT cytometer (Merck-Millipore, Burlington, MA, USA) with Guava—Soft™ software version 2.7. A total of 5000 events were counted per treatment.

Compound: Cc1ccc(NC(=S)N/N=C2\C(=O)C3=C(OC(C)(C)CC3)c3ccccc32)cc1 [BV5, 2-(2,2-dimethyl-5-oxo-3,4-dihydro-2H-benzo[h]chromen-6(5H)-ylidene)-N-(p-tolyl)-thiocarbohydrazide]
- IC50 [1]: 36.9 µM
- IC50 [2]: 17.9 µM
- IC50 [3]: 15.5 µM
- IC50 [4]: 15.5 to 36.9 µM
- cell viability compared to negative control (HeLa cells): significantly decreased cell viability

Compound: CC1(C)CCC2=C(O1)c1ccccc1/C(=N/NC(=S)Nc1ccc([N+](=O)[O-])cc1)C2=O [BV3, 2-(2,2-dimethyl-5-oxo-3,4-dihydro-2H-benzo[h]chromen-6(5H)-ylidene)-N-(4nitrophen-yl)thio-carbohydrazide]
- IC50 [1]: 20.6 µM
- selectivity index (SI) [1]: 2.13
- IC50 [2]: 12.6 µM
- selectivity index (SI) [2]: 3.47
- IC50 [3]: 16.5 µM
- selectivity index (SI) [3]: 2.66
- IC50 [4]: 2.81 to 20.6 µM
- necrosis compared to negative control (HeLa cells): increases
- cell viability compared to negative control (HeLa cells): significantly decreased cell viability

Compound: CC1(C)CCC2=C(O1)c1ccccc1C(=O)C2=O [β-lap, β-Lapachone]
- IC50 [1]: 0.14 µM
- selectivity index (SI) [1]: 32.4
- IC50 [2]: 0.12 µM
- selectivity index (SI) [2]: 37.8
- IC50 [3]: 3.38 µM
- selectivity index (SI) [3]: 1.34
- IC50 [4]: 0.12 to 3.38 µM
- early apoptosis compared to negative control (HeLa cells): significantly increased
- necrosis compared to negative control (HeLa cells): increases
- cell viability compared to negative control (HeLa cells): reduced the number of viable cells
